Results taken from article PMC10180276, “Hot-Melt Extrusion as an Effective Technique for Obtaining an Amorphous System of Curcumin and Piperine with Improved Properties Essential for Their Better Biological Activities” (Molecules, 2023).
≈ marks a conversion by molar mass, not a printed value.

Key:
[1] = in vitro; settings: PAMPA, pH 6.8
Method: Concentrations of curcumin and piperine during solubility, dissolution rate, and permeability studies were measured by high-performance liquid chromatography with the DAD detector (HPLC-DAD). In this study, a Shimadzu Nexera system (Shimadzu Corp., Kyoto, Japan) was used, equipped with an SCL-40 system controller, a DGU-403 degassing unit, a LC-40B XR solvent delivery module, a SIL-40C autosampler, a CTO-40C column oven, and a SPD-M40 photodiode array detector. For the stationary phase, a Dr. Maisch ReproSil-Pur Basic-C18 100 Å column with 5 µm particle size and 250 × 4.60 mm (Dr. Maisch, Ammerbuch-Entringen, Germany) was used. The mobile phase was acetonitrile:0.1% acetic acid (85:15 v/v). The mobile phase was vacuum-filtered through a 0.45 µm nylon filter (Phenomenex, Torrance, CA, USA). The experimental conditions were as follows: 0.5 mL/min flow rate, wavelengths of 420 nm for curcumin and 340 nm for piperine, and a column temperature of 30 °C. The injection volume differed depending on the assay. […] The method’s duration was 12 min. […]
In vitro gastrointestinal (GIT) and blood–brain barrier (BBB) permeability were studied using the PAMPA (Parallel Artificial Membrane Permeability Assay) models. […] The Papp factor was calculated according to the previously reported method. […] The results were expressed as a concentration in the acceptor solution.

[2] = Apparent solubility study in phosphate buffer pH 6.8; type: physicochemical
Method: (§1) The injection volume differed depending on the assay. […] The method’s duration was 12 min.
(§2) Phosphate buffer at pH 6.8 was prepared according to the following description: in a 1000 mL volumetric flask, we placed 250 mL of 0.2 N potassium dihydrogen phosphate solution, then added 112 mL of 0.2 N sodium hydroxide solution, and filled the mixture up to 1000 mL with distilled water. High-quality pure water was prepared using a Direct-Q 3 UV purification system (Millipore, Molsheim, France, model Exil SA 67120).
An excess amount of raw compounds and systems (corresponding to 1.5 mg of each substance) was placed in a 10 mL glass tube; then, 2.0 mL of phosphate buffer (pH 6.8) was added and left at room temperature for 3 h.

[3] = PAMPA BBB permeability model; type: in vitro ADME; settings: pH 7.4
Method: as §1
The sandwich consists of two 96-well microfilter plates.

[4] = Dissolution study, paddle apparatus, phosphate buffer pH 6.8; type: physicochemical; settings: phosphate buffer pH 6.8, 37 °C, 50 rpm; after one hour (plateau)
Method: as §1, §2
The dissolution study was performed on the paddle apparatus (Agilent 708-DS dissolution apparatus, Santa Clara, CA, USA). The amount of the compound and systems corresponding to 7.0 mg of each plant-origin active ingredient was added to the gelatin capsule, placed in a spring used as a sinker, and then added to the dissolution medium. The vessels were filled with 500 mL of phosphate buffer, pH 6.8; the temperature was maintained at 37 °C, and the paddles were set at a stirring speed of 50 rotations per minute. The 2.0 mL samples were withdrawn at predetermined time points (5 min, 15 min, 30 min, 1 h, 2 h, 3 h, 4 h, 5 h, and 6 h) with the replacement of equal volumes of temperature-equilibrated media.

Compound	Papp at 3 h [1] [×10⁻⁶ cm/s]	solubility at 3 h [2] [µg/mL]	Papp at 3 h [3] [×10⁻⁶ cm/s]	curcumin dissolved, % of the dose [4] [%]	piperine dissolved, % of the dose [4] [%]
COc1cc(/C=C/C(=O)CC(=O)/C=C/c2ccc(O)c(OC)c2)ccc1O [curcumin]	1.63	0.1 (≈ 0.271 µM)	2.63	2.54 ± 0.15	–
O=C(/C=C/C=C/c1ccc2c(c1)OCO2)N1CCCCC1 [piperine]	8.18	6 ± 0.1 (≈ 21 µM)	57.7	–	22.63 ± 0.67
